Tests used:
[1] = molecular target: T1, cGMP PDE5 (Homo sapiens, UniProt O76074); assay: In vitro PDE inhibitory activity against cGMP PDE5 (IC50); assay type: biochemical; conditions: cGMP PDE5 from human corpus cavernosum tissue
T1 construct: The IC50 measurements for cGMP PDE5 were based upon data generated on human corpus cavernosum tissue; from tissue; host or cells: human corpus cavernosum
Text: (§1) The IC50 measurements for cGMP PDE5 were based upon data generated on human corpus cavernosum tissue and the IC50 measurements for rod cGMP PDE6 were based upon data generated on bovine retina tissue and wherein the selectivity ratio for cGMP PDE5 to cGMP PDE6 quoted is based upon IC50 PDE5/IC50 PDE6.

[2] = molecular target: T2, rod cGMP PDE6 (Bos taurus, UniProt P11541+P23439); assay: In vitro PDE inhibitory activity against rod cGMP PDE6 (IC50), used for the PDE5 versus PDE6 selectivity; assay type: biochemical; conditions: ratio of IC50 for cGMP PDE5 (human corpus cavernosum) and rod cGMP PDE6 (bovine retina)
T2 construct: the IC50 measurements for rod cGMP PDE6 were based upon data generated on bovine retina tissue; from tissue; host or cells: bovine retina
T2 sequence (P11541 2-856 limits assumed): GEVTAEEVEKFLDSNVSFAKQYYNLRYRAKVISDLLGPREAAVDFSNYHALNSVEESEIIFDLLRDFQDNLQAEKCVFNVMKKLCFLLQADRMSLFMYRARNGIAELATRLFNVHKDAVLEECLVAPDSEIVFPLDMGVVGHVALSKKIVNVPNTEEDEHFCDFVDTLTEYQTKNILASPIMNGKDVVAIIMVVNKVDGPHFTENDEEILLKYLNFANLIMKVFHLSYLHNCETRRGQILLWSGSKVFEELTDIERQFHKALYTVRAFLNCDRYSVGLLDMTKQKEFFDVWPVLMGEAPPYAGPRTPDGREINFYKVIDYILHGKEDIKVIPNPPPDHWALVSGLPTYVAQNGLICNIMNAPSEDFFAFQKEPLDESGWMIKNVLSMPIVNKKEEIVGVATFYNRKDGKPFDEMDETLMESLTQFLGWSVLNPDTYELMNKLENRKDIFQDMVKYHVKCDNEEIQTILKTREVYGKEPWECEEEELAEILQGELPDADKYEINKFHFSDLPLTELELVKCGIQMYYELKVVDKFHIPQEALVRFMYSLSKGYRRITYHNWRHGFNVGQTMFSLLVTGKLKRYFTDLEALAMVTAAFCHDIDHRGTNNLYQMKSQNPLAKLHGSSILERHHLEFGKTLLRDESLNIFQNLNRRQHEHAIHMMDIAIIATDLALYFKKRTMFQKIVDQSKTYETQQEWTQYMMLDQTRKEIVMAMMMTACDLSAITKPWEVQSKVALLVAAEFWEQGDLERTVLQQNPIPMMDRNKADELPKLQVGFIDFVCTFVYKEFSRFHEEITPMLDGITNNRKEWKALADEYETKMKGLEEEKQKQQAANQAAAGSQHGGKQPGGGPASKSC
T2 sequence (P23439 2-850 limits assumed): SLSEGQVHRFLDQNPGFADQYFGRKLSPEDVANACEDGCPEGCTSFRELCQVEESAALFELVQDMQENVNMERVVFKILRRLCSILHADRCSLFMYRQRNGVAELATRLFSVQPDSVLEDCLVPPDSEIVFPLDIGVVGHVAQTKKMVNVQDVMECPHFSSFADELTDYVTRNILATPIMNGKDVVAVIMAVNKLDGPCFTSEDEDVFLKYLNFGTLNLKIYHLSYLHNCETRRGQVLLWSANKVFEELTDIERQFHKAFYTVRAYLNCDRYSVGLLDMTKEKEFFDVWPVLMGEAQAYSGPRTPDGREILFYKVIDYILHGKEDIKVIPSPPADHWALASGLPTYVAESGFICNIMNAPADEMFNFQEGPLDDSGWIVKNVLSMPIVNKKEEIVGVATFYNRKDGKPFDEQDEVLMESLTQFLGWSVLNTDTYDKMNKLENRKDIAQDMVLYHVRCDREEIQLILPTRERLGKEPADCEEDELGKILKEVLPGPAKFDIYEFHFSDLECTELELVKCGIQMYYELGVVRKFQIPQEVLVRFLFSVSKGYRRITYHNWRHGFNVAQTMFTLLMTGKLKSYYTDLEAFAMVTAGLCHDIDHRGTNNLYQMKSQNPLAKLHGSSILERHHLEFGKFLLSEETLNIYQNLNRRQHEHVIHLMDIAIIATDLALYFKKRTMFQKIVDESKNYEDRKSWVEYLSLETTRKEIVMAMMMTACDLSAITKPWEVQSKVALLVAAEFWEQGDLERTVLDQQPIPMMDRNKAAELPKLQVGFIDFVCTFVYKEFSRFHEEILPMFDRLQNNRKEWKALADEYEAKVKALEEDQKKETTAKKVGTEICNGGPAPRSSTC
Text: as §1

Row | IC50 [1] [nM] | Compound | Selectivity (PDE 5/6) [2]
1 | 1 | CCOc1ncc(S(=O)(=O)N2CCN(CC)CC2)cc1-c1nc2c(CC)n(CC(C)C)nc2c(=O)[nH]1 [Example 5] | –
2 | 1.68 | CCOc1ncc(S(=O)(=O)N2CCN(CC)CC2)cc1-c1nc2c(CC)n(CCOC)nc2c(=O)[nH]1 [Example 8, 1-{6-ethoxy-5-[3-ethyl-6,7-dihydro-2-(2-methoxyethyl)-7-oxo-2H-pyrazolo[4,3-d]pyrimidin-5-yl]-3-pyridylsulfonyl}-4-ethylpiperazine] | 223.8
3 | 6.4 | CCOc1ncc(S(=O)(=O)N2CCN(CC)CC2)cc1-c1nc2c(CC)n(C3CN(C(C)=O)C3)nc2c(=O)[nH]1 [Example 22, 2-(1-Acetylazetidin-3-yl)-5-[2-ethoxy-5-(4-ethylpiperazin-1-ylsulphonyl)pyridin-3-yl]-3-ethyl-2,6-dihydro-7H-pyrazolo[4,3-d]pyrimidin-7-one] | 325.3
4 | 1.52 | CCCOc1ncc(S(=O)(=O)N2CCN(CC)CC2)cc1-c1nc2c(CC)n(CCN(C)C(C)=O)nc2c(=O)[nH]1 [Example 24] | 134.9
5 | 1.09 | CCc1c2nc(-c3cc(S(=O)(=O)N4CCN(C)CC4)cnc3OCCOC)[nH]c(=O)c2nn1CC1CCC1 [Example 53, 2-Cyclobutylmethyl-3-ethyl-5-[2-(2-methoxyethoxy)-5-(4-methylpiperazin-1-ylsulphonyl)pyridin-3-yl]-2,6-dihydro-7H-pyrazolo[4,3-d]pyrimidin-7-one] | –

Row | Compound | IC50 [1] [nM] | Selectivity (PDE 5/6) [2]
6 | CCCCOc1ncc(S(=O)(=O)N2CCN(CC)CC2)cc1-c1nc2c(CC)n(CCN(C)C)nc2c(=O)[nH]1 [Example 17, 5-[2-n-Butoxy-5-(4-ethylpiperazin-1-ylsulphonyl)pryridin-3-yl]-2-dimethylaminoethyl-3-ethyl-2,6-dihydro-7H-pyrazolo[4,3-d]pyrimidin-7-one] | 0.9 | 254.1
7 | CCCc1c2nc(-c3cc(S(=O)(=O)N4CCN(CC)CC4)cnc3OCC(C)C)[nH]c(=O)c2nn1CCOC [Example 27, 5-[2-isoButoxy-5-(4-ethylpiperazin-1-ylsulphonyl)pyridin-3-yl]-2-(2-methoxyethyl)-3-n-propyl-2,6-dihydro-7H-prazolo[4,3-d]pyrimidin-7-one] | 0.85 | 161
8 | CCCCOc1ncc(S(=O)(=O)N2CCN(CC)CC2)cc1-c1nc2c(CC)n(CC(=O)N(C)C)nc2c(=O)[nH]1 [Example 60, 5-[2-n-Butoxy-5-(4-ethylpiperazin-1-ylsulphonyl)pyridin-3-yl]-2-[2-(dimethylamino)-2-oxoethyl]-3-ethyl-2,6-dihydro-7H-pyrazolo[4,3-d]pyrimidin-7-one] | 0.45 | 343.7

Reference: patent publication US6677335B1, “Pharmaceutically active compounds” (Pfizer Inc, priority 1999, dated 2004)
